The text below walks through data of PMC9810691, “Structure-guided peptide engineering of a positive allosteric modulator targeting the outer pore of TRPV1 for long-lasting analgesia” (Nature Communications, 2023).

Values joined by “and” are separate entries in the source; they are usually repeats but may differ in a detail not shown here. Identical values can stand only once.

Experiment [1] concerns CFA-induced chronic inflammatory pain model mice. The class given is in vivo. The conditions noted are these: capsaicin alone (with saline) or with linear or folded s-RhTx; words. The procedure: Mechanical allodynia was assessed via von Frey test as previously reported. Mice were placed in a plexiglass chamber upon the elevated metal mesh with 1 cm openings and allowed to acclimatize for 1 h. To determine mechanical thresholds of paw withdrawal, a series of von Frey filaments (0.02–2.56 g, Stoelting Co.) with increasing stiffness were used according to Dixon’s up-down method.

The target of experiment [2] is T1, TRPV1 (Mus musculus, UniProt Q704Y3). The experiment is described as follows: Capsaicin-induced desensitization of TRPV1 (WT) in calcium. Format: cell-based, murine. The procedure:
(§1) HEK293T cells are cultured using DMEM medium contained 10% FBS in a cell incubator with 5% CO2 at 37 °C. Plasmids of murine TRPV1, TRPV2, TRPV3 and human TRPA1 are labeled with YFP or GFP as indicators for subsequent electrophysiological recordings. cDNA constructs of ion channels were transiently transfected with Lipofectamine 2000 (Invitrogen, Carlsbad, CA). And one or 2 days after transient transfection, electrophysiological recordings were performed.
(§2) Patch-clamp recordings were carried out with a HEKA EPC10 amplifier controlled by PatchMaster software (HEKA). Patch pipettes were prepared from borosilicate glass and fire-polished to resistance of 3–8 MΩ by P-97 puller. Both bath solution and pipette solution contained 130 mM NaCl, 10 mM glucose, 0.2 mM EDTA, and 3 mM HEPES and were adjusted to pH 7.2–7.4 with NaOH for whole-cell recordings. For solution with pH lower than 6.5, HEPES was replaced by MES. Whole-cell recordings were performed at ±80 mV. Current was sampled at 10 kHz and filtered at 2.9 kHz. All recordings were performed at room temperature (25 °C). A gravity-driven system (RSC-200, Bio-Logic) with freely rotated perfusion tubes was used for the perfusion of peptide or ligands. Bath and ligand solution were delivered through separate tubes to minimize the mixing of solutions. […]
(§3) Data from whole-cell recordings were analyzed in Igor Pro version 5.05 (WaveMatrix). […]

The test system of another experiment is wildtype mice. The class given is in vivo. The procedure:
Adult C57 BL/6 mice (male, 8–10 weeks) and Trpv1^-/- mice (Jax Strain #:003770) were used for behavioral studies. To specifically label Trpv1-positive nerve fibers in skin tissues, Trpv1-Cre mice[36] (Jax Strain #:017769) were crossed with floxed reporter lines (Ai32, Jax Strain #:012569 or Ai14, Jax Strain #:007914) to get the transgenic reporter (Trpv1-Ai32 or Trpv1-Ai14) mice. Mice were group-housed at 22–24 °C and relative humidity of 30–70% under the 12 h light-dark cycle with access to standard food and water ad libitum. All the animal procedures were approved by the Institutional Animal Care & Use Committee (IACUC) of Zhejiang University. […]
Spontaneous pain was measured by counting the time (s) mice spent on licking, lifting, or flinching the affected hind paws over a 10-min period after i.pl. injection.

Experiment [3] deals with CFA-induced chronic inflammatory pain model mice. Nature of the experiment: CFA-induced heat hyperalgesia (Hargreaves test). The class given is in vivo. The note with it: capsaicin alone (with saline) or with linear or folded s-RhTx; words. The procedure: Thermal sensitivity was tested using a Hargreaves radiant heat apparatus (IITC Life Science) as previously reported[40],[41]. For heat hyperalgesia test in CFA model, the basal paw withdrawal latency was adjusted to 9 to 12 s, with a cutoff of 20 s to prevent tissue damage. For thermal sensitivity test, the basal paw withdrawal latency was adjusted to 4 to 6 s, with a cutoff of 10 s to prevent tissue damage. Withdrawal latency were averaged from three consecutive tests with a 5 min interval between measurements.

Experiment [4] concerns the target T1, TRPV1. The experiment is described as follows: Calcium imaging, HEK293T cells expressing TRPV1. Format: cell-based, murine. The procedure:
as §1
Calcium imaging assay was performed as previously described[12],[20]. In brief, HEK293T cells expressing TRPV1 were incubated with 2 μM Fluo-4 AM (Thermo Fisher) in 2 mM calcium Ringer’s solution (140 mM NaCl, 5 mM KCl, 2 mM MgCl2, 2 mM CaCl2, 10 mM glucose, and 10 mM HEPES, pH 7.4). Fluorescence images of HEK293T cells were acquired with Nikon Eclipse Ti2 microscope with optiMOS charge-coupled device camera controlled by the Ocular Software (Molecular Devices). Fluo-4 AM was excited at 500/20-nm excitation, and fluorescence emission was detected at 535/30-nm. Fluorescence images were analyzed with Fiji software and Office Excel.

Experiment [5] relates to Trpv1+ nerve fibers, Trpv1-Ai32 / Trpv1-Ai14 mice. The experiment is described as follows: Trpv1+ intra-epidermal nerve fiber (IENF) quantification. The class given is in vivo. The note with it: capsaicin 200 ng alone or with 2 μg peptide. The procedure:
Adult C57 BL/6 mice (male, 8–10 weeks) and Trpv1^-/- mice (Jax Strain #:003770) were used for behavioral studies. To specifically label Trpv1-positive nerve fibers in skin tissues, Trpv1-Cre mice[36] (Jax Strain #:017769) were crossed with floxed reporter lines (Ai32, Jax Strain #:012569 or Ai14, Jax Strain #:007914) to get the transgenic reporter (Trpv1-Ai32 or Trpv1-Ai14) mice. Mice were group-housed at 22–24 °C and relative humidity of 30–70% under the 12 h light-dark cycle with access to standard food and water ad libitum. All the animal procedures were approved by the Institutional Animal Care & Use Committee (IACUC) of Zhejiang University.
After appropriate survival times, the mice were deeply anesthetized with isoflurane and perfused through the ascending aorta with PBS, followed by 4% PFA. After the perfusion, the hind paw glabrous skins and L4-L6 DRGs were removed and postfixed in the same fixative overnight. Skin sections (30 μm) and DRG sections (10 μm) were cut in a cryostat. Sections were blocked with 2% BSA for 2 h at room temperature and then incubated with Deep-red 640/660-conjugated Nissl (1:1000) at room temperature for 2 h. Sections were then incubated with DAPI (1:10,000, Vector Laboratories, catalog H-1200) for 5 min, followed by three times washing with PBS for 5 min each. The stained and mounted sections were examined with a Nikon fluorescence microscope, and images were captured with a charge-coupled device Spot camera. For quantification analysis, at least three sections from each mouse were selected, and at least three mice were analyzed in each group. To evaluate Trpv1-positive nerve fiber degeneration, transgenic reporter (Trpv1-Ai32 or Trpv1-Ai14) mice were used for the quantification of intra-epidermal nerve fiber (IENF) density. IENF density was calculated by counting the number of IENF crossing the epidermis-dermis boundary within unit length.

Another experiment relates to TRPV1 K604E. The experiment is described as follows: Desensitization, TRPV1 mutant K604E. The class given is cell-based, murine. The conditions noted are these: 10 μM cap alone or + 30 μM s-RhTx; single cells; listed as cap. The procedure: Site mutations of mTRPV1 were generated by Fast Mutagenesis Kit (Takara Bio). Primers used to generate point mutations are summarized in Supplementary Table 1. All mutations were confirmed by sequencing.
as §2, with “solutions. Patch pipette holding cells was placed in front of the perfusion tube outlet for perfusion.” for “solutions.”
as §3

T1 sequence (Q704Y3 whole entry): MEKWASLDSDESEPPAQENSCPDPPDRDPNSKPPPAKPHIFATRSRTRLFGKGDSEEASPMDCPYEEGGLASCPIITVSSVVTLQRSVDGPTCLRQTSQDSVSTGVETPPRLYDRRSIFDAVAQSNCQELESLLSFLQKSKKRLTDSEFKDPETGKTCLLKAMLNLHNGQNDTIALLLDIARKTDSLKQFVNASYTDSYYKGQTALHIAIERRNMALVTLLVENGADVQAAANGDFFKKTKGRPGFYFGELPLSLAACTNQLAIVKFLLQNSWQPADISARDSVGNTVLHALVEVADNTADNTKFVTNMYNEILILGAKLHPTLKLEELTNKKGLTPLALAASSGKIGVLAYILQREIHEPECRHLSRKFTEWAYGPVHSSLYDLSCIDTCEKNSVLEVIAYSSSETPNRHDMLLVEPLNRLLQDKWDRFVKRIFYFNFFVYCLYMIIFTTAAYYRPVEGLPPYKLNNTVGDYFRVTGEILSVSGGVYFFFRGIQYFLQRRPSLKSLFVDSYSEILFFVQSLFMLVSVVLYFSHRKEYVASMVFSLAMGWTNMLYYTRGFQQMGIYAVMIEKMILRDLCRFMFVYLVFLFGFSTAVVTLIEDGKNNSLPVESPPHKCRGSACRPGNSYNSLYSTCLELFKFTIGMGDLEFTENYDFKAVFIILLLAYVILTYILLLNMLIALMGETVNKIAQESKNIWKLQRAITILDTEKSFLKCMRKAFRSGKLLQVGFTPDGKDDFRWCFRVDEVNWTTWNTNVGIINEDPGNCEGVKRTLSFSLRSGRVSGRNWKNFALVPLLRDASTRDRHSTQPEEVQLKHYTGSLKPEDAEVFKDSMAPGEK

In the case of `COc1cc(CNC(=O)CCCC/C=C/C(C)C)ccc1O` [capsaicin, Capsaicin], the “effect on CFA-induced mechanical allodynia” value in experiment [1] is “robust and prolonged mechanical allodynia”. Also, on TRPV1 [2], the “AUC of desensitization (mean)” value is 72.39 ± 6.61 and 39.25 ± 5.01; the “desensitization time constant tau (mean)” value is 47.37 ± 6.14 s and 23.87 ± 3.97 s. In addition, the “spontaneous pain behavior, with capsaicin” value with wildtype mice (capsaicin 200 ng alone or with 2 μg peptide, i.pl., words) was “caused a mild spontaneous pain behavior”. Moreover, in the experiment on wildtype mice (capsaicin 200 ng i.pl. alone (cap) or with 2 μg linear or folded s-RhTx, 20 μl, individual mice, listed as Cap), the “total time of spontaneous pain within 10 min, with capsaicin” value is 63.91 s and 41.04 s and 20.17 s and 30.43 s and 88.51 s and 98.54 s and 102.03 s and 29.73 s and 145.77 s. Further, the “effect on CFA-induced heat hyperalgesia” value in experiment [3] is on record as “slow recovery from heat hyperalgesia”. The calcium influx result at TRPV1 [4] is on record as “cannot induce discernable calcium influx”. The “IENF number, with capsaicin” value in experiment [5] (individual mice, listed as Cap) is 11 and 9 and 12. The “number of Trpv1+ IENF, with capsaicin” value in experiment [5] (words) is “little effect on the number of Trpv1^+ IENF”. Also, in the experiment with TRPV1 K604E, the “desensitization time constant, K604E” value is 46.184 s and 35.399 s and 63.872 s and 58.758 s and 34.354 s and 64.15 s.
